Results as given in PMC11623267, “Inhibitors of malaria parasite cyclic nucleotide phosphodiesterases block asexual blood-stage development and mosquito transmission” (Science Advances, 2024).

Key:
[1] = system: P. falciparum stage IV/V gametocytes; test: LDH-based gametocyte viability assay; type: cell-based, Plasmodium falciparum; details: stage IV to V gametocytes
Method in brief: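 Late gametocytes (>95% stage IV/V) at 2% gametocytemia and 1% hematocrit, exposed to compound in triplicate for 72 h at 37°C, then 75% medium change to drug-free medium and another 72 h. Viability from pLDH activity with Malstat reagent (pH 9) plus PES/NBT, absorbance at 620 nm.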

[2] = system: P. falciparum stage V gametocytes (male gamete formation); test: Exflagellation (male gamete formation) inhibition assay; type: cell-based, Plasmodium falciparum; details: for IC50: 48 hours exposure
Method in brief: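 Mature stage V gametocytes (>95%) treated with compound for 48 h (2 μM single point, or fourfold serial dilutions), then exflagellation induced in ookinete medium with 100 μM XA and 20% human serum, compound still present. Exflagellation centres counted by video microscopy at room temperature between 15 and 22.5 min; IC50 from curves normalised to maximum and minimum inhibition.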

[3] = system: P. falciparum NF54 gametocytes fed to Anopheles stephensi; test: Initial SMFA and sporozoite production; type: in vivo, Plasmodium falciparum; details: for Oocyst and sporozoite formation: 0.5 and 1 μM
Protocol: P. falciparum NF54 gametocytes were prepared for blood-feeding to mosquitoes according to the method described ([57]), with some slight modifications. Briefly, gametocyte cultures seeded at 2% overall parasitemia and 4% hematocrit were maintained at 37°C for 16 days with daily medium changes. Gametocyte functional viability was assessed by an exflagellation assay at day 14 after induction, observed by light microscopy. Anopheles stephensi (SD500 strain) were reared as described ([58]). Gametocyte aliquots from a single NF54 culture, produced as above, were incubated either with SAL-0010003 or SAL-0010042 in two separate experiments at 100 nM, 500 nM or 1 μM, 1 μM methylene blue (full-block control), or culture medium only (no-drug control) from day 14 to day 16 when SMFA was carried out. Fresh drug-containing medium was provided each day during this exposure. Pots containing 70 to 80 female A. stephensi mosquitoes, aged 2 to 5 days old, were allowed to feed on 500 μl of the respective culture plus drug mixture, presented to each pot in a preheated three-dimensional printed water channel membrane feeder ([59]), until fully fed. Mosquitoes were placed in an incubator at standard conditions. Seven to 8 days after the feed, 10 to 15 mosquitoes were removed and kept under standard conditions for salivary gland dissection on day 14 after feeding. The remaining mosquito midguts were dissected on day […] or day 7, respectively, after the feed in 0.25% mercurochrome stain to determine oocyst counts by light microscopy.

[4] = system: P. falciparum mature stage V gametocytes; test: Induction of gametogenesis; type: cell-based, Plasmodium falciparum; details: 1× IC50, without XA or temperature drop
Protocol: Mature (>90% stage V) gametocytes were exposed to short-term treatment with two of the 5-benzyl series compounds, SAL-0010042 and SAL-0010003. In the absence of any other stressors (drop in temperature, pH increase, and XA), mature gametocytes were treated at 1× IC50 of either compound, and samples were taken at 15, 30, and 60 min. Giemsa-stained slides were prepared at these time points, and the parasite populations were evaluated morphologically using light microscopy. Male and female gametes were identified or distinguished on the basis of rounding up, shape, and size. Statistical evaluation was performed with paired, two-tailed t test (GraphPad Prism 6.0).

[5] = system: P. falciparum stage V gametocytes (female gamete formation); test: Female gamete formation inhibition assay; type: cell-based, Plasmodium falciparum; details: for IC50: 48 hours exposure
Method in brief: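 P. falciparum gametocytes (>95% stage V) were treated for 48 h with compound at 2 μM or in a fourfold dilution series. Female gamete formation was then triggered by a temperature drop plus 100 μM xanthurenic acid. Gametes were detected with FITC-anti-Pfs25, 30 images per sample were counted manually, and IC50 was fitted after normalisation to maximum and minimum inhibition.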

[6] = Plasmodium falciparum, 2 μM, 48 hours

SMILES	% inhibition gametocyte viability at 15 μM [1]	inhibition at 2 µM [2, 6]	IC50 ([2]; Plasmodium falciparum)	Infection prevalence and intensity ([3]; 100 nM)	Oocyst and sporozoite formation [3]	Time to stimulate gametogenesis of mature stage V gametocytes [4]	inhibition at 2 µM [5, 6]	IC50 ([5]; Plasmodium falciparum)	% inhibition of exflagellation at 2 μM ([2]; 2 μM, 48 hours)	IC50 [2]	% inhibition of female gamete formation at 2 μM ([5]; 2 μM, 48 hours)	IC50 [5]
CC(C)c1n[nH]c2c(=O)[nH]c(Cc3ccc(F)cc3F)nc12 [SAL-0010003]	65.4 ± 20.3%	88.4 ± 17%	404 nM	reduced	Few or no oocysts or sporozoites	≤ 15 min	71.3 ± 1.5%	273 nM	–	–	–	–
CC(C)c1[nH]nc2c(=O)[nH]c(Cc3ccccc3F)nc12 [SAL-0010042]	99.6 ± 1.3%	–	–	–	Few or no oocysts or sporozoites	≤ 15 min	–	–	95.4 ± 18.0%	386 nM	97.7 ± 0.4%	238 nM
